{"source": "patent US20110305637A1", "about": "“RADIOLABELLED PDE10 LIGANDS” (Janssen Pharmaceutica N.V., priority 2009, published 2011)", "test": "Biodistribution study in male Wistar rats", "assay_type": "in vivo, rat", "settings": "for % ID/g × kg in Blood / % ID/g × kg in Cerebellum / % ID/g × kg in Cerebrum + Cerebellum / % ID/g × kg in Cerebrum total / % ID/g × kg in Cortex / % ID/g × kg in Heart / % ID/g × kg in Hippocampus / % ID/g × kg in Kidneys / % ID/g × kg in Liver / % ID/g × kg in Lungs / % ID/g × kg in Rest of cerebrum / % ID/g × kg in Spleen + Pancreas / % ID/g × kg in Striatum: normalized for body weight", "procedure": "(§1) The biodistribution study of [^18F]B-1 was carried out in male Wistar rats (body weight 250-350 g) at 2 min, 30 min and 60 min post injection (p.i.) (n=3/time point). Rats were injected with about 1.1 MBq of the tracer via tail vein under anesthesia (2.5% Isoflurane in O2 at 1 L/min flow rate) and sacrificed by decapitation at above specified time points. Blood and major organs were collected in tared tubes and weighed. The radioactivity in blood, organs and other body parts was measured using an automated gamma counter The distribution of radioactivity in different parts of the body at different time points p.i. of the tracer was calculated and expressed as percentage of injected dose (% ID), and as percentage of injected dose per gram tissue (% ID/g) for the selected organs. % ID is calculated as cpm in organ/total cpm recovered. For calculation of total radioactivity in blood, blood mass was assumed to be 7% of the body mass.\nas §1, with “[^18F]B-2” for “[^18F]B-1”, “270-340” for “250-350”", "key": {"[1]": {"settings": "60 min p.i., % ID/g values normalized for the body weight"}}, "note": "“And” between values parts separate entries of the source, which are not always exact repeats. Equal values may be shown once.", "data": [{"smiles": "[18F]CCCn1cc(-c2ccncc2)c(-c2ccc(OCc3ccc4ccccc4n3)cc2)n1", "note": "[[^18F]B-1]", "values": [{"measurement": "% ID/g × kg in Blood", "setting": "30 min p.i.", "result": "0.03 ± 0.00", "unit": "% ID/g × kg"}, {"measurement": "% ID/g × kg in Cerebellum", "setting": "30 min p.i.", "result": "0.023 ± 0.00", "unit": "% ID/g × kg"}, {"measurement": "% ID/g × kg in Cerebrum + Cerebellum", "setting": "30 min p.i.", "result": "0.03 ± 0.00", "unit": "% ID/g × kg"}, {"measurement": "% ID/g × kg in Cerebrum total", "setting": "30 min p.i.", "result": "0.032 ± 0.00", "unit": "% ID/g × kg"}, {"measurement": "% ID/g × kg in Cortex", "setting": "30 min p.i.", "result": "0.027 ± 0.01", "unit": "% ID/g × kg"}, {"measurement": "% ID/g × kg in Heart", "setting": "30 min p.i.", "result": "0.07 ± 0.00", "unit": "% ID/g × kg"}, {"measurement": "% ID/g × kg in Hippocampus", "setting": "30 min p.i.", "result": "0.021 ± 0.00", "unit": "% ID/g × kg"}, {"measurement": "% ID/g × kg in Kidneys", "setting": "30 min p.i.", "result": "0.16 ± 0.01", "unit": "% ID/g × kg"}, {"measurement": "% ID/g × kg in Liver", "setting": "30 min p.i.", "result": "1.03 ± 0.08", "unit": "% ID/g × kg"}, {"measurement": "% ID/g × kg in Lungs", "setting": "30 min p.i.", "result": "0.35 ± 0.03", "unit": "% ID/g × kg"}, {"measurement": "% ID/g × kg in Rest of cerebrum", "setting": "30 min p.i.", "result": "0.030 ± 0.00", "unit": "% ID/g × kg"}, {"measurement": "% ID/g × kg in Spleen + Pancreas", "setting": "30 min p.i.", "result": "0.07 ± 0.00", "unit": "% ID/g × kg"}, {"measurement": "% ID/g × kg in Striatum", "setting": "30 min p.i.", "result": "0.106 ± 0.00", "unit": "% ID/g × kg"}, {"measurement": "% ID in Blood", "setting": "60 min p.i.", "result": "1.9 % ID and 1.94 ± 0.1 % ID"}, {"measurement": "% ID in Carcass", "setting": "60 min p.i.", "result": "27.96 ± 0.7", "unit": "% ID"}, {"measurement": "% ID in Cerebellum", "setting": "60 min p.i.", "result": "0.012 ± 0.00", "unit": "% ID"}, {"measurement": "% ID in Cerebrum total", "setting": "60 min p.i.", "result": "0.101 ± 0.01", "unit": "% ID"}, {"measurement": "% ID in Cortex", "setting": "60 min p.i.", "result": "0.012 ± 0.00", "unit": "% ID"}, {"measurement": "% ID in Heart", "setting": "60 min p.i.", "result": "0.17 ± 0.0", "unit": "% ID"}, {"measurement": "% ID in Hippocampus", "setting": "60 min p.i.", "result": "0.003 ± 0.00", "unit": "% ID"}, {"measurement": "% ID in Intestines", "setting": "60 min p.i.", "result": "14.72 ± 4.1", "unit": "% ID"}, {"measurement": "% ID in Kidneys", "setting": "60 min p.i.", "result": "1.45 ± 0.1", "unit": "% ID"}, {"measurement": "% ID in Liver", "setting": "60 min p.i.", "result": "41.44 ± 1.5", "unit": "% ID"}, {"measurement": "% ID in Lungs", "setting": "60 min p.i.", "result": "0.32 ± 0.0", "unit": "% ID"}, {"measurement": "% ID in Rest of cerebrum", "setting": "60 min p.i.", "result": "0.071 ± 0.01", "unit": "% ID"}, {"measurement": "% ID in Spleen + Pancreas", "setting": "60 min p.i.", "result": "0.31 ± 0.0", "unit": "% ID"}, {"measurement": "% ID in Stomach", "setting": "60 min p.i.", "result": "10.00 ± 2.5", "unit": "% ID"}, {"measurement": "% ID in Striatum", "setting": "60 min p.i.", "result": "0.015 ± 0.00", "unit": "% ID"}, {"measurement": "% ID in Urine", "setting": "60 min p.i.", "result": "1.87 ± 0.2", "unit": "% ID"}, {"measurement": "% ID present in the liver and intestines in total", "setting": "60 min p.i.", "result": 56, "unit": "% ID"}, {"measurement": "% ID present in the urinary system", "setting": "60 min p.i.", "result": "~3.3", "unit": "% ID"}, {"measurement": "% ID/g in Blood", "setting": "60 min p.i.", "result": "0.08 ± 0.00", "unit": "% ID/g"}, {"measurement": "% ID/g in Cerebellum", "setting": "60 min p.i.", "result": "0.04 ± 0.00", "unit": "% ID/g"}, {"measurement": "% ID/g in Cerebrum + Cerebellum", "setting": "60 min p.i.", "result": "0.07 ± 0.00", "unit": "% ID/g"}, {"measurement": "% ID/g in Cerebrum total", "setting": "60 min p.i.", "result": "0.07 ± 0.00", "unit": "% ID/g"}, {"measurement": "% ID/g in Cortex", "setting": "60 min p.i.", "result": "0.06 ± 0.00", "unit": "% ID/g"}, {"measurement": "% ID/g in Heart", "setting": "60 min p.i.", "result": "0.16 ± 0.00", "unit": "% ID/g"}, {"measurement": "% ID/g in Hippocampus", "setting": "60 min p.i.", "result": "0.05 ± 0.01", "unit": "% ID/g"}, {"measurement": "% ID/g in Kidneys", "setting": "60 min p.i.", "result": "0.46 ± 0.02", "unit": "% ID/g"}, {"measurement": "% ID/g in Liver", "setting": "60 min p.i.", "result": "3.11 ± 0.06", "unit": "% ID/g"}, {"measurement": "% ID/g in Lungs", "setting": "60 min p.i.", "result": "0.20 ± 0.02", "unit": "% ID/g"}, {"measurement": "% ID/g in Rest of cerebrum", "setting": "60 min p.i.", "result": "0.07 ± 0.00", "unit": "% ID/g"}, {"measurement": "% ID/g in Spleen + Pancreas", "setting": "60 min p.i.", "result": "0.19 ± 0.01", "unit": "% ID/g"}, {"measurement": "striatum/blood ratio", "setting": "[1]", "result": 3.0}, {"measurement": "striatum/cerebellum ratio", "setting": "[1]", "result": 5.6}, {"measurement": "striatum/cortex ratio", "setting": "[1]", "result": 4.4}, {"measurement": "striatum/hippocampus ratio", "setting": "[1]", "result": 5.2}, {"measurement": "% ID/g × kg in Blood", "setting": "60 min p.i.", "result": "0.03 ± 0.00", "unit": "% ID/g × kg"}, {"measurement": "% ID/g × kg in Cerebellum", "setting": "60 min p.i.", "result": "0.015 ± 0.00", "unit": "% ID/g × kg"}, {"measurement": "% ID/g × kg in Cerebrum + Cerebellum", "setting": "60 min p.i.", "result": "0.02 ± 0.00", "unit": "% ID/g × kg"}, {"measurement": "% ID/g × kg in Cerebrum total", "setting": "60 min p.i.", "result": "0.024 ± 0.00", "unit": "% ID/g × kg"}, {"measurement": "% ID/g × kg in Cortex", "setting": "60 min p.i.", "result": "0.019 ± 0.00", "unit": "% ID/g × kg"}, {"measurement": "% ID/g × kg in Heart", "setting": "60 min p.i.", "result": "0.05 ± 0.00", "unit": "% ID/g × kg"}, {"measurement": "% ID/g × kg in Hippocampus", "setting": "60 min p.i.", "result": "0.016 ± 0.00", "unit": "% ID/g × kg"}, {"measurement": "% ID/g × kg in Kidneys", "setting": "60 min p.i.", "result": "0.16 ± 0.01", "unit": "% ID/g × kg"}, {"measurement": "% ID/g × kg in Liver", "setting": "60 min p.i.", "result": "1.04 ± 0.02", "unit": "% ID/g × kg"}, {"measurement": "% ID/g × kg in Lungs", "setting": "60 min p.i.", "result": "0.07 ± 0.01", "unit": "% ID/g × kg"}, {"measurement": "% ID/g × kg in Rest of cerebrum", "setting": "60 min p.i.", "result": "0.022 ± 0.00", "unit": "% ID/g × kg"}, {"measurement": "% ID/g × kg in Spleen + Pancreas", "setting": "60 min p.i.", "result": "0.06 ± 0.01", "unit": "% ID/g × kg"}, {"measurement": "% ID/g × kg in Striatum", "setting": "60 min p.i.", "result": "0.083 ± 0.01", "unit": "% ID/g × kg"}, {"measurement": "Clearance, 2 min/30 min ratio for % ID/g values", "setting": "Blood", "result": 1.60}, {"measurement": "Clearance, 2 min/60 min ratio for % ID/g values", "setting": "Blood", "result": 2.28}, {"measurement": "Clearance, 2 min/30 min ratio for % ID/g values", "setting": "Cerebellum", "result": 4.37}, {"measurement": "Clearance, 2 min/60 min ratio for % ID/g values", "setting": "Cerebellum", "result": "8.8 and 8.81"}, {"measurement": "Clearance, 2 min/30 min ratio for % ID/g values", "setting": "Cerebrum total", "result": 2.54}, {"measurement": "Clearance, 2 min/60 min ratio for % ID/g values", "setting": "Cerebrum total", "result": 4.34}, {"measurement": "Clearance, 2 min/30 min ratio for % ID/g values", "setting": "Cortex", "result": 3.81}, {"measurement": "Clearance, 2 min/60 min ratio for % ID/g values", "setting": "Cortex", "result": 7.19}, {"measurement": "Clearance, 2 min/30 min ratio for % ID/g values", "setting": "Hippocampus", "result": 2.54}, {"measurement": "Clearance, 2 min/60 min ratio for % ID/g values", "setting": "Hippocampus", "result": 4.33}, {"measurement": "Clearance, 2 min/30 min ratio for % ID/g values", "setting": "Rest of cerebrum", "result": 2.54}, {"measurement": "Clearance, 2 min/60 min ratio for % ID/g values", "setting": "Rest of cerebrum", "result": 4.53}, {"measurement": "Clearance, 2 min/30 min ratio for % ID/g values", "setting": "Striatum", "result": 0.97}, {"measurement": "Clearance, 2 min/60 min ratio for % ID/g values", "setting": "Striatum", "result": "1.6 and 1.62"}, {"measurement": "% ID present in the carcass", "setting": "at all time points examined", "result": "~26", "unit": "% ID"}]}]}
